The term half-life denotes the time in which the quantity being followed falls by half.

Series [1] is described as follows: Phase I dose escalation trial of Compound 1 in NHL (NCT03328078): safety and tolerance. The format is in vivo, human.
Protocol: (§5) Seven dosing cohorts included 50 and 100 mg QD, and 50, 100, 200, 300, or 400 mg BID of daily continuous oral monotherapy in 21-Day cycles. Objective included safety and tolerance (primary), pk/pd and early efficacy (secondary), and biomarker correlations (exploratory). 31 patients with resistant or refractory, advanced NHL have been enrolled.
The test system of series [2] is resistant or refractory, advanced NHL. The series is described as follows: Phase I dose escalation trial of Compound 1 in NHL (NCT03328078): tumor response. The format is in vivo, human. The following applies: patient with DLBCL-GCB; initial dose 200 mg bid, final dose 300 mg bid.
Protocol: as §5
Series [3] has as its system Waldenstrom's macroglobulinemia (WM). The series is described as follows: WM patient case on Compound 1 with intra-patient dose escalation: IgM, m-protein, response. Type of series: in vivo, human. The protocol:
The patient remained asymptomatic for over 4 years with a slow increase in m-protein and IgM during that time. By mid-2017 they started to experience increased fatigue. […] There was no evidence of CXCR4 genomic alteration. […] Several options were discussed including clinical trials and standard of care Bruton's tyrosine kinase inhibitor (BTKi) therapy.
Baseline testing in December 2018 included a bone marrow biopsy showing 5-10% involvement by WM, m-protein of 1.66 g/dL, IgM 2,801 mg/dL, and a computed tomography scan without pathological lymphadenopathy or hepatosplenomegaly. Quantitative immunoglobulins and serum protein electrophoresis were obtained each cycle to determine response to treatment (FIG. 1).
The patient initiated treatment at the first dose level, 50 mg. […] Using a standard 3+3 design the subsequent dose level, 100 mg po BID, was cleared per protocol. Considering evidence of response without noted toxicity, the patient was a candidate to escalate to 100 mg po BID starting with cycle 7 day 1 in April 2019. […] They reported a significant improvement in their quality of life with resolution of fatigue and returned to a rigorous daily exercise program that they had been unable to perform for the last 2 years due to WM-related symptoms. […]

Series [4] in a line: Oral pharmacokinetics of Compound 1 in humans (FIG. 7). The format is in vivo, human. The text has this:
In summary, the oral pharmacokinetics of Compound 1 are desirable.

The subject of the next series is NF-κB p-p50. Kind of series: Immunohistochemistry of NF-κB p-p50 in tumor biopsies of NHL patients treated with Compound 1. The format is in vivo, human. The following applies: paired biopsies before and after/during treatment with Compound 1 (3 cases). The method, then: Formalin-fixed, paraffin-embedded sections of human tonsil and lymphoma were used. Tissue sections (5 μm) were deparaffinized, and antigen retrieval was carried out at 90-100° C. in citrate buffer for 10-40 min. The sections were incubated in 1% […] for 10 minutes to quench endogenous tissue peroxidase. Tissue sections were then incubated with primary NF-κB p-p50-specific antibody for 1 hour at room temperature. The primary NF-κB p-p50-specific antibody used NF-κB p-p50 (S337), sc-271908 from Santa Cruz Biotechnology. The slides were stained using a standard EnVision+System-HRP kit (DAKO, Carpinteria, CA) according to the manufacture's protocol. Immunohistochemical reactions were developed with diaminobenzidine as the chromogenic peroxidase substrate, and slides were counterstained with hematoxylin. Negative control samples included replacement of the primary antibody with nonimmune IgG1 (Dako).
Specifically, nuclear and/or cytoplasmic expression of NF-kappaB p-p50 was found in all 6 SD cases treated with 50 mg QD (2 cases, tumor regression), 50 mg BID (1 case), 200 BID (1 case, tumor regression) and 400 BID (2 cases). Expression of NF-kappaB p-p50 was not detected in 7 of 8 cases with PD including patients treated with 50 mg QD (1 case), 100 mg QD (1 case), 100 mg BID (3 cases), 200 mg BID (1 case) and 400 BID (1 case). […]

Series [5] concerns NF-kB p-p50 S337 in OCL-LY10 cells. Kind of series: Western blot of NF-kB p-p50 S337 in OCL-LY10 cells. Type of series: cell-based. To be noted: 3 μM and 10 μM, 48 h, vs DMSO. The method, then: (§1) At 48 h post-treatment, cell lysates were obtained. Protein sample concentration was quantified and equal amount 20 μg of whole protein extract was loaded in each well of SDS-polyacrylamide gel. Cell extracts were separated by 10% SDS-PAGE, transferred to nitrocellulose membrane, and probed as indicated. The following antibodies were used for immunoblot analysis: NF-kB p-p50 S337 (Santa Cruz Biotechnology) and b-actin (Cell Signaling Technology).
On the technique in general: Immunoblotting shows a protein as a band on a membrane.

Series [6] concerns NF-kB p-p50 S337 in TF-1 cells. The series is described as follows: Western blot of NF-kB p-p50 S337 in TF-1 (AML) cells. Type of series: cell-based. The following applies: TF-1 cells (AML cells, FIG. 13B), 3 μM and 10 μM, 48 h, vs DMSO. The protocol: as §1
Series [7] is described as follows: Phase 1 study of Compound 1 in AML or high risk MDS (NCT04278768): safety. The format is in vivo. To be noted: Cohort 1, 200 mg BID. The protocol: (§2) This study will be conducted in 2 parts: an initial dose escalation and dose expansion phase. […] Three patients with AML or MDS will be enrolled at the designated dose. If none of the first 3 patients experience a DLT during the first cycle, patients may be enrolled into the next higher dose level of 300 mg bid until a safe and effective RP2D is established.
(§3) This study is expected to enroll approximately 18 patients to establish the initial RP2D.
(§4) The major study inclusion and exclusion criteria are as follows: Relapsed or refractory AML (primary or secondary, including treatment-related) after at least one standard treatment (including chemotherapy, re-induction therapy or stem cell transplantation) based on the assessment of the investigator or high/very high risk relapsed/refractory MDS (IPSS-R criteria), following at least 6 cycles of hypomethylating agents [HMA] or evidence of early progression.

The test system of a further series is AML or high risk MDS. The series is described as follows: Phase 1 study of Compound 1 in AML or high risk MDS (NCT04278768): marrow response. The format is in vivo, human. The following applies: initial patients, 200 or 300 mg BID. The protocol:
as §2, §3, §4

Series [8] has as its system Waldenstrom's macroglobulinemia (WM). Kind of series: Prior therapies of the WM patient (case history). The format is in vivo, human.

“Also recorded” adds a separate entry of the source.

With `Cc1cc(-c2nc(C(=O)Nc3cc4oc(N5CCOCC5)nc4nc3N3CC[C@@H](O)C3)co2)ccn1` [Compound 1], in [1] (200 mg BID, N = 5), the “Anemia, All Grades, [E]” value is “[1]”; the “Neutropenia, All Grades, [E]” value was “[3]”; the “Neutropenia, Grade 3 or Higher, [E]” value is “[2]”. Besides, in series [1] (300 mg BID, N = 6), the “Anemia, All Grades, [E]” value is “[3]”; the “Neutropenia, All Grades, [E]” value was “[5]”; the “Neutropenia, Grade 3 or Higher, [E]” value was “[1]”. In series [1] (400 mg BID, N = 8), the “Anemia, All Grades, [E]” value is “[1]”; the “Anemia, Grade 3 or Higher, [E]” value was “[1]”; the “Neutropenia, All Grades, [E]” value is “[3]”; the “Thrombocytopenia, All Grades, [E]” value is “[2]”. Also, in [1] (400 mg BID, N = 8), the “Thrombocytopenia, Grade 3 or Higher, [E]” value was “[2]”. In addition, in series [1] (31 NHL patients, 50 mg QD to 400 mg BID), the tolerability overall entry was “well tolerated; also recorded: good safety and tolerance”. In series [1] (WM patient, 200 mg po BID, asymptomatic, resolved with exercise moderation), the “creatine phosphokinase (CPK/CK) elevation” value is recorded as “grade 2”. The tolerability result in series [1] (WM patient, first dose level, 50 mg) is “tolerated therapy well without adverse events”. Also, the “Tumor Reduction” value in [2] is listed as 35%. Further, the fatigue entry in series [3] (200 mg po BID, by the summer of 2019) is given as “completely resolved”. The response result in series [3] (cycles 7 and 8, 100 mg po BID) is listed as “stable disease”. The same compound had a half-life in series [4] (human, plasma, oral administration) of around 6 h. Moreover, the “accumulation at steady state” value in series [4] (multiple daily twice dose administration) is recorded as “Moderate accumulation”. The “time of maximum plasma concentrations post dose” value in series [4] (oral administration) is 0.5 to 8 h. Besides, in the series with NF-κB p-p50, the “NF-κB phospho-p50 expression in tumor biopsies” value was “significant downregulation; also recorded: inhibited”. Further, the “expression of NF-kB p-p50 S337 (Western blot)” value in series [5] is “downregulated”. Further, the “expression of NF-kB p-p50 S337 (Western blot)” value in series [6] is “downregulated”. In addition, the “DLT 1st cycle” value in series [7] (3 patients with hr-MDS) is on record as “No DLT”. Besides, in series [7] (C2), the “dose reductions for Gr. 3 dizziness” value was determined as 1. The marrow response result in the series on AML or high risk MDS is recorded as “several marrow complete responses”.

For rituximab, the response entry in series [8] (induction 375 mg/m^2 IV weekly for 8 weeks then maintenance, 2005-2007) is on record as “very good partial remission”; in series [8] (retreatment June-September 2011), “stable disease”. In series [8] (retreatment 2011, numeric increase from 1476), this compound yielded an IgM of 2042 mg/dL.
